Several values for one entry are separate records, joined by “and”; a condition that tells them apart may be missing. Equal values may be shown once. Read-outs that look alike come from different tables or passages of the source.
Experiments:
CD-1 mice = settings: 14 days
Method: (§1) Single oral dose LD50 in CD-1 mice and CD rats, obtained from Charles River U.K. Ltd., for Cpd. 1 is determined. […] Cpd. 1, dissolved in buffer, or just buffer is administered orally and the mice and rats are observed for 14 days after dosing. After 14 days, the animals are sacrified and necropsy is performed to check for gross evidence of toxicity.

CD rats = settings: 14 days
Method: as §1

[1] = test system: spleen lymphocytes of KLH-immunized C57BL/6 mice; settings: for Lymphocyte Stimulation Index, Con-A / Lymphocyte Stimulation Index, Control (no mitogen) / Lymphocyte Stimulation Index, PHA: day 17
Text: The effect of the compounds of this invention on the immune response to specific antigens involves immunization of mice with specific anitgens such as bovine serum albumin (BSA) or keyhole limpet hemocyanin (KLH). Following immunization, it is possible to assess the cell-mediated or humoral (antibody) immune response to these antigens by various methods:
(1) Lymphocyte stimulation assays can be performed using varying concentrations of the specific antigens as mitogens in the lymphocyte stimulation microculture system described above. The only difference is that the incubation period is extended to five days instead of three as for the polyclonal mitogens.
Mice of the C57BL/6 strain are given i.p. injections of either 50, 100, 200 or 400 mg/kg of Cpd. 1 or buffer for ten days (days 1-10). An antigen, keyhole limpet hemocyanin (KLH), is administered intraperitoneally with Freund's Complete Adjuvant (FCA) on days 1, 7, and 13. Blood samples are taken for assay of the antibody response on days 0, 5, 12, and 17. Spleens are removed, lymphocytes isolated and a lymphocyte stimulation assay with PHA, Con-A or KLH antigen as the mitogens is performed on day 17 of the experiment.

L5178Y tumor cells = settings: 100 mg/kg i.p., 7 days
Method: (§2) Ten days later the resultant tumor nodule, about 1 cm in size, is surgically excised. If the excision was successful, no subcutaneous tumors develop at the site of implantation. […] These mice are considered to be in the tumor dormant state.
(§3) The effect of Cpd. 1 on the emergence from the L5178Y tumor dormant state is studied by treating forty DBA/2 mice with Cpd. 1 after the mice have undergone the TDS inducing procedure. […] 1 at 100 mg/kg and the remaining twenty mice receive buffer only. A partial peritoneal lavage is performed twenty-five days after the last dose of Cpd. 1 and the peritoneal exudate fluid is plated out for determination of tumor cell numbers (tumor cell quantitative assay). Survival time is recorded out to 90 days after challenge with the viable L5178Y tumor cells. The percent mortality is calculated for each group.
(§4) The effect of Cpd. 1 on the emergence from the L5178Y tumor dormant state was studied by treating forty DBA/2 mice with Cpd. 1 after the mice had undergone the TDS inducing procedure. Two days after the mice were challenged with i.p. administration of 50,000 viable L5178Y tumor cells, twenty of these mice received seven consecutive days of i.p. treatment with Cpd. 1 at 100 mg/kg and the remaining twenty mice received buffer only. A partial peritoneal lavage was performed twenty-five days after the last dose of Cpd. 1 and the peritoneal exudate fluid was plated out for determination of tumor cell numbers (tumor cell quantitative assay). Survival time was recorded out to 114 days after challenge with the viable L5178Y tumor cells. The percent mortality was calculated for each group.

L5178Y tumor = settings: 100 mg/kg i.p., 7 days
Method: as §2, §3, §4

[2] = test system: spleen lymphocytes of BALB/C mice; settings: 4 days
Method: The purpose of this assay is to challenge lymphocytes in microcultures with one or more polyclonal mitogens at concentrations that will induce mitogenesis within 72 hours of stimulation.
In the mouse model, spleens are removed from different strains of mice and the spleen cells are teased free and suspended in RPMI-1640 tissue culture medium at a concentration of usually 1×10^7 ml. These cells are dispensed at a concentration of 5.0×10^5 cells per microculture well in a 96 well flat bottom 96 well tissue culture plate. All testing of the compounds of this invention or mitogens are done in replicates of 10. The cells are then treated with PHA, Con-A, specific antigens, or buffer only. If in vitro testing is done, varying concentrations of the compounds of this invention or buffer only are added to the cells as well. After treatment with the mitogens and/or compounds of this invention, the cells are incubated for 72 hours. The response of these cells to mitogens and/or the compounds of this invention is assessed using ^14 C-thymidine labeling on the fourth day at a concentration of 0.01 μCi/well. The labeled cells are harvested using a lymphocyte harvestor and placed onto fibrous paper discs. […] The data is expressed as a ratio of the cpm of the mitogen stimulated group to the control (non-mitogen) treated group=lymphocyte stimulation index (LSI). […]

Cc1ccc(C2(O)C(=O)OC3C(O)COC32O)o1.Cc1ccc(C2(O)C(=O)OC3C(O)COC32O)o1.O=C1CCC(=O)O1 (centres unmarked) [Cpd. 1]
deaths or signs of toxicity (CD-1 mice; single oral 5 g/kg): No deaths or signs of toxicity
LD50 (CD-1 mice; single oral dose): > 5000 mg/kg
deaths or signs of toxicity (CD rats; single oral 5 g/kg): No deaths or signs of toxicity
LD50 (CD rats; single oral dose): > 5000 mg/kg
Lymphocyte Stimulation Index, Con-A ([1]; 50 mg/kg i.p.): 19.0
Lymphocyte Stimulation Index, Control (no mitogen) ([1]; 50 mg/kg i.p.): 0.976
Lymphocyte Stimulation Index, PHA ([1]; 50 mg/kg i.p.): 7.65
Lymphocyte Stimulation Index, KLH ([1]; 50 mg/kg i.p., day 17, KLH 0.025 μg/well): 0.0386
Lymphocyte Stimulation Index, KLH ([1]; 50 mg/kg i.p., day 17, KLH 0.5 μg/well (first 0.5 column)): 0.415
Lymphocyte Stimulation Index, KLH ([1]; 50 mg/kg i.p., day 17, KLH 0.5 μg/well (second 0.5 column)): 0.357
Lymphocyte Stimulation Index, KLH ([1]; 50 mg/kg i.p., day 17, KLH 1.0 μg/well): 0.536
Lymphocyte Stimulation Index, Con-A ([1]; 100 mg/kg i.p.): 15.6
Lymphocyte Stimulation Index, Control (no mitogen) ([1]; 100 mg/kg i.p.): 0.961
Lymphocyte Stimulation Index, PHA ([1]; 100 mg/kg i.p.): 9.12
Lymphocyte Stimulation Index, KLH ([1]; 100 mg/kg i.p., day 17, KLH 0.025 μg/well): 0.401
Lymphocyte Stimulation Index, KLH ([1]; 100 mg/kg i.p., day 17, KLH 0.5 μg/well (first 0.5 column)): 0.734
Lymphocyte Stimulation Index, KLH ([1]; 100 mg/kg i.p., day 17, KLH 0.5 μg/well (second 0.5 column)): 0.526
Lymphocyte Stimulation Index, KLH ([1]; 100 mg/kg i.p., day 17, KLH 1.0 μg/well): 0.898
Lymphocyte Stimulation Index, Con-A ([1]; 200 mg/kg i.p.): 51.7
Lymphocyte Stimulation Index, Control (no mitogen) ([1]; 200 mg/kg i.p.): 1.73
Lymphocyte Stimulation Index, PHA ([1]; 200 mg/kg i.p.): 12.4
Lymphocyte Stimulation Index, KLH ([1]; 200 mg/kg i.p., day 17, KLH 0.025 μg/well): 3.91
Lymphocyte Stimulation Index, KLH ([1]; 200 mg/kg i.p., day 17, KLH 0.5 μg/well (first 0.5 column)): 4.26
Lymphocyte Stimulation Index, KLH ([1]; 200 mg/kg i.p., day 17, KLH 0.5 μg/well (second 0.5 column)): 1.02
Lymphocyte Stimulation Index, KLH ([1]; 200 mg/kg i.p., day 17, KLH 1.0 μg/well): 7.45
lymphocyte DNA synthesis ([1]; 200 mg/kg, day 17, Con-A or KLH): statistically significant increase in lymphocyte DNA synthesis
Lymphocyte Stimulation Index, Con-A ([1]; 400 mg/kg i.p.): 35.5
Lymphocyte Stimulation Index, Control (no mitogen) ([1]; 400 mg/kg i.p.): 0.840
Lymphocyte Stimulation Index, PHA ([1]; 400 mg/kg i.p.): 2.32
Lymphocyte Stimulation Index, KLH ([1]; 400 mg/kg i.p., day 17, KLH 0.025 μg/well): 1.03
Lymphocyte Stimulation Index, KLH ([1]; 400 mg/kg i.p., day 17, KLH 0.5 μg/well (first 0.5 column)): 0.232
Lymphocyte Stimulation Index, KLH ([1]; 400 mg/kg i.p., day 17, KLH 0.5 μg/well (second 0.5 column)): 0.667
Lymphocyte Stimulation Index, KLH ([1]; 400 mg/kg i.p., day 17, KLH 1.0 μg/well): 0.589
numbers of tumor cells recovered versus controls (L5178Y tumor cells): significant reduction in the numbers of tumor cells
Frequency of mice, Treated Group (L5178Y tumor cells; 1,000 to 100,000 tumor cells): 7 and 4
% of Total, Treated Group (L5178Y tumor cells; >100,000 tumor cells): 6% and 4.3%
Frequency of mice, Treated Group (L5178Y tumor cells; >100,000 tumor cells): 1
survival versus untreated controls (L5178Y tumor): significantly greater survival
% Survival (L5178Y tumor; 90 days post-challenge): 55.6%
No. Survivors (L5178Y tumor; 90 days post-challenge): 10
% Survival (L5178Y tumor; 114 days post-challenge): 82.6%
No. Survivors (L5178Y tumor; 114 days post-challenge): 19
DNA synthesis of spleen cell lymphocytes ([2]; 400 mg/kg, compared to 200 mg/kg): suppress DNA synthesis
lymphocyte DNA synthesis, PHA and Con-A ([2]; 50, 100 and 200 mg/kg i.p.): tend to stimulate lymphocyte DNA synthesis
